{"source": "patent US10173999B2", "about": "“Cyclic amine derivative and pharmaceutical use thereof” (Toray Industries, Inc., priority 2015, dated 2019)", "experiment": "Stability test in mouse liver microsomes", "assay_type": "in vitro ADME", "conditions": "pH 7.4; mouse liver microsomes 0.5 mg/mL, test compound 2 μmol/L, 37° C., 0-30 min; read-out: Hepatic intrinsic clearance, Mouse", "description": "Experiment was performed using the compound of Example 11, Comparative Example 1 or Comparative Example 6 as a test compound and human liver microsomes (from Xenotech), monkey liver microsomes (from Xenotech), dog liver microsomes (from Xenotech) or mouse liver microsomes (from Xenotech) as the liver microsomes.\nThe reagents to be used in the stability test in liver microsomes were prepared as follows. A D-glucose 6-phosphate disodium salt (hereinafter referred to as G6P) was dissolved with distilled water to prepare an aqueous solution of G6P (100 mmol/L). Glucose 6-phosphate dehydrogenase (1000 units) from Yeast (hereinafter referred to as G6PDH) was dissolved with distilled water (5 mL) to prepare an aqueous solution of G6PDH (200 units/mL). MgCl2 was dissolved with distilled water to prepare an aqueous solution of MgCl2 (100 mmol/L). […]\nWith respect to the chromatogram of each well obtained by LC/MS analysis or LC/MS/MS analysis, the test compound residual ratio (%) at each reaction time t (min) was calculated based on the peak area at the reaction time of 0 minute as 100%. […]", "note": "Where a name gives a salt, the structure may show the parent alone.", "data": [{"compound": "CN(C)C1CCN(C(=O)CCc2nccn2C)CC1", "note": "[Comparative Example 1, 1-(4-(dimethylamino)piperidin-1-yl)-3-(1-methyl-1H-imidazol-2-yl)propan-1-one hydrochloride]", "values": [{"measurement": "microsomal CLint at 2 μmol/L", "result": 4, "unit": "µL/min/mg"}]}, {"compound": "CN(C)C1CCN(C(=O)C[C@H](O)c2nccn2C)CC1", "note": "[Example 11, (S)-1-(4-(dimethylamino)piperidin-1-yl)-3-hydroxy-3-(1-methyl-1H-imidazol-2-yl)propan-1-one]", "values": [{"measurement": "microsomal CLint at 2 μmol/L", "result": 3, "unit": "µL/min/mg"}]}]}
